One compound from patent US9046516B2, “Immunoassay method, reagent kit for detecting alkaline phosphatase, and reagent kit for immunoassay” (SYSMEX CORPORATION, priority 2007, dated 2015) can be followed below.

In the assay the test system is endogenous ALP. Briefly: HBs antigen immunoassay with ALP label: luminescence intensity of samples, reduction of the influence of endogenous ALP. It counts as biochemical. The conditions noted are these: particle dispersion with 2 mM levamisole. As to the method: In this example, the effect of the inhibitor of endogenous ALP contained in the particle dispersion prepared in (4) above on reduction of the influence of endogenous ALP was examined.
Specifically, the reagents prepared in (1) to (5) above were used and the luminescence intensities of HBs antigen-negative samples were measured. The measurement method is described below.
First, 25 μL sample was mixed with 30 μL of the HBs antibody reagent and then incubated at 42° C. for about 3 minutes, whereby an HBs antigen in the sample was reacted with the biotinylated HBs antibody in the HBs antibody reagent. Subsequently, 30 μL of the magnetic particle reagent was added to the mixture and then incubated for about 2 minutes, and a complex consisting of the HBs antigen and the biotinylated HBs antibody was immobilized on the ST magnetic particles. […] 50 μL of the particle dispersion was added to the ST magnetic particles from which the wash fluid had been removed, then the ST magnetic particles were dispersed in the particle dispersion, 100 μL of the substrate solution was added thereto, and the luminescence intensity of the sample was measured with LUMI-COUNTER 700 (Microtec Nichion). […]

`c1ccc([C@H]2CN3CCSC3=N2)cc1` [Levamisole, (−)-2,3,5,6-tetrahydro-6-phenylimidazo[1,2-b]thiazole]: the “With Levamisole (Luminescence Intensity, Counts)” value was found to be 705 Counts (negative control NC (0.1 M TEA buffer solution containing 5% BSA, pH 7.0)) and 258759 Counts (positive control PC (HBs antigen-positive serum)).
